# Data: US4231923A, “Assay method and compounds” (Burroughs Wellcome Co., priority 1977, dated 1980)
# Target: Opiate receptor
# Assay: Opiate receptor binding (IC50) by the method of Pasternak et al. using tritiated naloxone, absence of sodium ions
# Settings: method indicated in Example 1 (tritiated naloxone, absence of sodium ions, 4° C., pH 7.4); Table 2
# Procedure: *Method of Pasternak, G. W. et al., Molecular Pharmacology, 11, 340-351
# (1975) using tritiated naloxone and in the absence of sodium ions; assays
# trishydrochloric acid buffer (50 mM, pH 7.4).
# (§1) The opiate receptor IC50 (M) was ascertained by the method indicated in Example 1.
# as §1
substance,measurement,value
H.Try.Gly.Gly.Phe.D-Met.OMe HCl [(Y)],IC50,0.06 µM
